Test results published in patent EP2444396A1, “PHOTOPROTECTIVE COMPOSITION” (Apoteknos Para La Piel, S.L., priority 2009, dated 2010).
Values joined by “and” are separate entries in the source; they are usually repeats but may differ in a detail not shown here. Equal entries are not always repeated. Marks after values point to notes of the source that are not given here.

Legend:
ERβ = target: T1, ERβ (Homo sapiens, UniProt Q92731); test: Estrogenicity reporter gene bioassay (luciferase activity) in HELN-ERβ cells; format: cell-based
T1 construct: expressed in transfected cells; host or cells: HeLa (HELN-ERβ)
T1 sequence (Q92731 whole entry, species assumed): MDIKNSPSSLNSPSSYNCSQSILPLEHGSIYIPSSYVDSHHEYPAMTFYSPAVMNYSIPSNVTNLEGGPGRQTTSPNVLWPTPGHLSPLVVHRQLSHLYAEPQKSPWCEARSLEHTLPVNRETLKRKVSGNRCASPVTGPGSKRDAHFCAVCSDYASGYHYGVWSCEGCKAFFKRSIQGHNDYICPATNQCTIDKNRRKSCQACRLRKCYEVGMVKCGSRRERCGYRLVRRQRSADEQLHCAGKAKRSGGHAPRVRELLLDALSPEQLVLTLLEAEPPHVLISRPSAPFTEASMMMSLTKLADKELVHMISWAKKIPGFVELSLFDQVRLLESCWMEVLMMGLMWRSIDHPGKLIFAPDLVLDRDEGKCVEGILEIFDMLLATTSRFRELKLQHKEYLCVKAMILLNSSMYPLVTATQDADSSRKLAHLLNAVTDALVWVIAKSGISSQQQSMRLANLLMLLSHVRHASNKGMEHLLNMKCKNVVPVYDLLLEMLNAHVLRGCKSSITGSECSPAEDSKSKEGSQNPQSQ
Excerpt: (§1) Briefly, the transactivation bioassay (Reporter gene assay) used are based on the use of breast and uterine cancer cell lines transfected with different native or modified hormone receptors. The resulting cell lines further contain a reporter gene regulated by estrogens through the estrogen response element, the globin promoter and the luciferase gene.
(§2) HELN-ERα and HELN-ERβ cell lines were obtained by means of transfecting the HeLa uterine cancer cell line. In a first phase, said cells were transfected with an estrogen sensitive response element and then with the estrogen receptor alpha or beta (ERα or ERβ). The selection of clones resistant to geneticin and puromycin was performed using a concentration of 1 mg/mL and 0.5 mg/mL, respectively. The maintenance medium as well as the experimental medium of these 2 cell lines is DMEM F12 without phenol red supplemented with 6% of FBS (lacking of estrogens), 1% of penicillin / streptomycin, 1 mg/mL of geneticin and 0.5 µg/mL of puromycin.
(§3) The cells were seeded at a density of 5x10^4 cells per well in white opaque 96 well plates in 150 µL of experimental medium. After 8 hours, the compounds to be assayed (p-nitrolophine and estradiol) were prepared (concentrated 4x) in the same medium and were added to each well (50 µl). The cells were incubated for 16 hours at 37°C. At the end of the incubation, the medium was removed and replaced with fresh medium containing […] luciferin [at that concentration, luciferin diffuses into cell producing a luminescent signal which is stable after 5 minutes and for at least 2 hours]. The plates were then introduced in the luminometer to measure the luminescence for 2 seconds. A YicroBeta Trilux luminometer (EGG Wallac) apparatus was used to detect luciferase activity.
(§4) The assays were preformed in quadruple for each concentration (0.01-10 µM) in at least three independent experiments. […] The values of luciferase activity obtained were analyzed using the one-way ANOVA statistic test. The differences were considered significant when P was less than […] (P < 0.05).

[1] = UV spectrum: wavelengths of maximum absorption and absorbance (Cecil 2021 UV-Visible Spectrophotometer); format: physicochemical
ERα = target: T2, ERα (Homo sapiens, UniProt P03372); test: Estrogenicity reporter gene bioassay (luciferase activity) in HELN-ERα cells; format: cell-based
T2 construct: expressed in transfected cells; host or cells: HeLa (HELN-ERα)
T2 sequence (P03372 1-595): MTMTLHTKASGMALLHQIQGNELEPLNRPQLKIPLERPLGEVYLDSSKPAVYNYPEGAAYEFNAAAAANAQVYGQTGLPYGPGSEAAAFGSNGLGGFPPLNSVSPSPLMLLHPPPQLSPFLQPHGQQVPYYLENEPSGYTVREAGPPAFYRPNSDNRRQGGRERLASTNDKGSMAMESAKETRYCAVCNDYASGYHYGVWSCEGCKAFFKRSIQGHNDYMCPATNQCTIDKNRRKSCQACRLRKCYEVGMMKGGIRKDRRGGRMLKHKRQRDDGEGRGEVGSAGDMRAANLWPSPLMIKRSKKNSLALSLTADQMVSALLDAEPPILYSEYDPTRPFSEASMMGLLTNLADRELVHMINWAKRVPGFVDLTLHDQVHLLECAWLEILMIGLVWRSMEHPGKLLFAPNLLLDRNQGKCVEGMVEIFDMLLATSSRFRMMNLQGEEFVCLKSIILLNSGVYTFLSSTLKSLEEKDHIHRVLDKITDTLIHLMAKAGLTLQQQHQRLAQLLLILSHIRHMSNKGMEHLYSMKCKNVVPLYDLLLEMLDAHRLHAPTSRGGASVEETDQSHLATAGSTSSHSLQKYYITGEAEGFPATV
Excerpt: as §1, §2, §3, §4

[2] = Absorption spectrum in methanol (195 - 400 nm); format: physicochemical; conditions: peak wavelength, 10 mg/ml
Method: In order to determine the absorption spectrum, a solution of 10 mg/ml of methanol was prepared from each of the substances. The methanol in turn was used to adjust the zero absorbance in each of the wavelengths in the range of 195 - 400 nm.

[3] = system: inflammation induced by phorbol 12-myristate-13-acetate (PMA); test: Topical anti-inflammatory activity: ear inflammation induced by PMA in mice; format: in vivo; parameters: RE / RE Average: unit not given here; conditions: for LE Average: left ear (non treated); for LE Average / RE Average: group average; for RE Average: right ear (treated); for LE: weight of 6 mm portion of left ear (non treated); for LE / RE: individual mice; for RE: weight of 6 mm portion of right ear (treated)
Method: The topical anti-inflammatory activity of p-nitrolophine has been analyzed in this study since erythema is a inflammatory process. Specifically, the inhibition of inflammation induced by phorbol 12-myristate-13-acetate (PMA) was evaluated and compared with an anti-inflammatory product of reference (indometacin). 37 mice were divided into the following groups: positive control group (PMA 0.5 mg); negative control group (indometacin 0.5 mg); treated groups (0.5 mg and 1 mg of p-nitrolophine). All the solutions were prepared using acetone (ppa) as vehicle. 20 µL of solution of 25 mg/mL of phorbol 12-myristate-13-acetate (PMA) [Fluka cod 79346] (10 µL in each face) was administered in the right ear of each mouse. Immediately after administering the PMA, nothing more was administered into the positive control group; 20 µL of the solution of 25 mg/mL of indometacin was administered to the negative control group, and 20 µL of the solution of 25 or 50 mg/mL of 4-nitrolophine was administered in the same manner to the treated groups. Animals having no lesions or skin and ear irritation were used.
After 4 hours of post-treatment, the mice were sacrificed through cervical fracture and a portion of 6 mm in diameter was obtained from each ear with a hollow punch which was weight in precision analytical balance. The difference in weight (Δ) between the right ear (treated) and the left ear (non treated) for each animal and for each group were calculated. The percentage of inhibition (% inh) was estimated and calculated according to the following equation: % inh = 100(1-Δt/Δc) [formula] wherein Δt represents the difference in the treated groups and Δc the difference for the […].
In order to analyze the results, an one way ANOVA and Dunnet test for multiple comparison was used, values of P<0.05 were considered significant. A software, Graphpad Instat Version 3.06, was used for such purposes.

O=[N+]([O-])c1ccc(-c2nc(-c3ccccc3)c(-c3ccccc3)[nH]2)cc1 [p-nitrolophine, 2-(4-nitrophenyl)-4,5-diphenyl-1H-imidazole]
activity at 0.01 µM (ERβ): 9.6 ± 1.4% | activity at 0.03 µM (ERβ): 10 ± 0.8% | activity at 0.1 µM (ERβ): 10.2 ± 1.3% | activity at 0.3 µM (ERβ): 10.3 ± 1.1% | activity at 1 µM (ERβ): 10.1 ± 1.3% | activity at 3 µM (ERβ): 10.2 ± 1.9% | activity at 10 µM (ERβ): 10.6 ± 1.2% | estrogenicity (ERβ; HELN-ERβ line, conclusion in words): not an estrogenic compound | UV spectrum A (a.u) ([1]; absorbance at the maximum of the same line): 0.715 a.u and 0.669 a.u and 0.774 a.u | UV spectrum λ (nm) ([1]; wavelengths of the maximum absorption): 221.0 nm and 255.0 nm and 379.0 nm | activity at 0.01 µM (ERα): 11.1 ± 0.9% | activity at 0.03 µM (ERα): 11.7 ± 0.9% | activity at 0.1 µM (ERα): 10.7 ± 1.1% | activity at 0.3 µM (ERα): 11.3 ± 1.5% | activity at 1 µM (ERα): 11.1 ± 1.1% | activity at 3 µM (ERα): 11.2 ± 1.4% | activity at 10 µM (ERα): 11.6 ± 1.5% | estrogenicity (ERα; HELN-ERα line, conclusion in words): not estrogenic | maximum absorption [2]: 379 nm | % inhibition ([3]; 4 hours): 100** (q = 9.5) % | Average (Δ = RE - LE) ([3]; Dose (mg/ear) 0.5, 4 hours): -0.13 | % inhibition ([3]; Dose (mg/ear) 1, n=4, tendency, not statistically compared): ~90% | Average (Δ = RE - LE) ([3]; Dose (mg/ear) 1, n=4, 4 hours): 0.52 | LE Average ([3]; 0.5 mg group, 4 hours): 6.7 | LE Average ([3]; 1 mg group, 4 hours): 5.9 | RE Average ([3]; 0.5 mg, 4 hours): 6.6 | RE Average ([3]; 1 mg, 4 hours): 6.4 | LE ([3]; 0.5 mg group, 4 hours, listed as 4-nitrolophine): 9.9 and 7.5 (2×) and 6.2 (2×) and 6.4 and 6.7 (2×) and 5.6 and 5.2 and 5.9 and 7.8 and 6 | LE ([3]; 1 mg group, 4 hours, listed as 4-Nitrolophine): 5.6 and 5.8 and 5,5 and 6.6 | RE ([3]; 0.5 mg, 4 hours, listed as 4-nitrolophine): 7.3 and 7 and 5.9 (2×) and 5.6 and 6.6 (2×) and 7.2 and 7.8 and 6.5 and 6 and 7.7 and 5.8 | RE ([3]; 1 mg, 4 hours, listed as 4-Nitrolophine): 5.9 and 7.3 and 6.2 (2×)
